Data published in article PMC10463376, “Design, synthesis, in vitro anticancer, molecular docking and SAR studies of new series of pyrrolo[2,3-d]pyrimidine derivatives” (BMC Chemistry, 2023).
Values after ≈ are worked out from the molar mass of the structure shown.

Key:
[1] = tested on: PC3 prostate cancer cells; experiment: MTT assay, PC3; conditions: Homo sapiens, 72 h; for cytotoxicity at 100 µg/mL: read-out: MTT cell proliferation mortality assay (%) PC3, at 100 μg/ml, 72 h; for IC50: read-out: IC50 PC3
Description: (§1) All of the following steps were done in a sterile Laminar flow class II biosafety cabinet (Baker, SG406INT, Sanford, ME, USA). DMEM was used as a suspension medium for breast cancer (MCF7), colorectal cancer (HCT116), prostate cancer (PC3), liver cancer (HePG2), pancreatic cancer (PACA2) and lung cancer (A549), while normal cell line (BJ1) was suspended in DMEM-F12 medium. The selected cell lines were purchased from American Type Culture Collection (ATCC). The media were supplemented with a 1% antimycotic-antibiotic mixture (10,000 µg/ml streptomycin sulfate, 25 µg/ml Amphotericin B, and 10,000 U/ml Potassium Penicillin) and 1% L-glutamine. 10 × 10^4cells/well were seeded in 96 well microtiter plates and incubated for 24 h at 37 ℃ under 5% carbon dioxide using a water-jacketed Carbon dioxide incubator (Sheldon, SCO5A, OR, USA). […] After the incubation time of 72 h, the medium was removed. Afterward, 40 µl MTT salt ([…]) was added to each well and kept for 4 h under the same conditions of 37 °C and 5% carbon dioxide. Finally, 200 μl of 10% Sodium dodecyl sulfate (SDS) in deionized water was added to each well and incubated overnight at 37 °C. The step of SDS addition was done to stop the reaction and dissolve the formed formazan crystals. The absorbance was then measured at a wavelength of 595 nm and the reference wavelength was set at 620 nm using a microplate multi-well reader (Bio-Rad Laboratories Inc., model 3356, California, USA). […] A statistical significance analysis was determined between the samples and the negative control using an independent t-test by SPSS 11 program. Dimethyl sulfoxide (DMSO) was the vehicle that dissolved our synthesized compounds and its concentration in the cells was less than 0.2%. IC50 values were calculated using the GraphPad Prism 6 program. The degree of selectivity of the synthetic compounds was expressed as SI = IC50 of a pure compound in a normal cell line/IC50 of the same pure compound in the cancer cell line, where IC50 is the concentration of the compound required to kill 50% of the cells.

MCF7 breast cancer cells = experiment: MTT assay, MCF7; conditions: for cytotoxicity at 100 µg/mL / IC50: Homo sapiens, MCF7, 72 h; for cytotoxicity at 100 µg/mL / cytotoxicity: read-out: MTT cell proliferation mortality assay (%) MCF7; for IC50: read-out: IC50 MCF7; for cytotoxicity: at 100 μg/ml, 72 h
Description: as §1

[2] = tested on: PACA2 pancreatic cancer cells; experiment: MTT assay, PACA2; conditions: Homo sapiens, PaCa-2, 72 h; for cytotoxicity at 100 µg/mL: read-out: MTT cell proliferation mortality assay (%) PACA2; for IC50: read-out: IC50 PACA2
Description: as §1

HePG2 liver cancer cells = experiment: MTT assay, HePG2; conditions: Homo sapiens, HepG2, 72 h; for IC50: read-out: IC50 HePG2; for cytotoxicity at 100 µg/mL: read-out: MTT cell proliferation mortality assay (%) HePG2
Description: as §1

A549 lung cancer cells = experiment: MTT assay, A549; conditions: for cytotoxicity at 100 µg/mL: read-out: MTT cell proliferation mortality assay (%) A549, at 100 μg/ml, 72 h
Description: as §1

[3] = tested on: HCT116 colorectal cancer cells; experiment: MTT assay, HCT116; conditions: for IC50 / cytotoxicity at 100 µg/mL: Homo sapiens, HCT-116, 72 h; for IC50: read-out: IC50 HCT116; for cytotoxicity at 100 µg/mL: read-out: MTT cell proliferation mortality assay (%) HCT116, at 100 μg/ml, 72 h; for cytotoxicity: read-out: MTT cell proliferation mortality assay (%) HCT116, at 100 μg/ml, 72 h
Description: as §1

[4] = MTT assay, normal cell line BJ1; type: cell-based; conditions: human, at 100 μg/ml, read-out: MTT cell proliferation mortality assay (%) BJ1
Description: as §1

| SMILES | cytotoxicity at 100 µg/mL [1] | cytotoxicity at 100 µg/mL (MCF7 breast cancer cells) | cytotoxicity at 100 µg/mL [2] | IC50 (HePG2 liver cancer cells) | cytotoxicity at 100 µg/mL (HePG2 liver cancer cells) | cytotoxicity at 100 µg/mL (A549 lung cancer cells; Homo sapiens, A549, 72 h) | IC50 [3] | cytotoxicity at 100 µg/mL [3] | cytotoxicity [3] | cytotoxicity at 72 h, 100 μg/ml [4] | IC50 [2] | IC50 (MCF7 breast cancer cells) | IC50 (A549 lung cancer cells; Homo sapiens, A549, 72 h, read-out: IC50 A549) | cytotoxicity (A549 lung cancer cells; read-out: MTT cell proliferation mortality assay (%) A549, at 100 μg/ml, 72 h) | IC50 [1] | cytotoxicity (MCF7 breast cancer cells) |
| --- | --- | --- | --- | --- | --- | --- | --- | --- | --- | --- | --- | --- | --- | --- | --- | --- |
| O=c1[nH]cnc2c1c(-c1ccc(Br)cc1)cn2-c1ccc(Cl)cc1Cl [Compound 3a, 5-(4-bromophenyl)-7-(2,4-dichlorophenyl)-3,7-dihydro-4H-pyrrolo[2,3-d]pyrimidin-4-one] | 36.5 ± 0.9% | 63.5 ± 2.6% | 71.3 ± 0.8% | 19.2 ± 0.6 µg/mL (≈ 44.1 µM) | 100% | 3.4 ± 0.2% | 44.5 ± 1.3 µg/mL (≈ 102 µM) | 80 to 90% | 84.3 ± 1.1% | 95.3 ± 1.8% | – | – | – | – | – | – |
| COc1ccc(-c2cn(-c3ccc(Cl)cc3Cl)c3nc[nH]c(=O)c23)cc1OC [Compound 3b, 7-(2,4-dichlorophenyl)-5-(3,4-dimethoxyphenyl)-3,7-dihydro-4H-pyrrolo[2,3-d]pyrimidin-4-one] | 15.6 ± 1.3% | 11.5 ± 0.8% | 76.3 ± 1.8% | – | 10.4 ± 1.7% | 8.5 ± 0.6% | – | 14.6 ± 0.1% | – | 3.5 ± 0.9% | 69.7 ± 1.3 µg/mL (≈ 167 µM) | – | – | – | – | – |
| Clc1ccc(-n2c(Cl)c(-c3ccc(Br)cc3)c3c(Cl)ncnc32)c(Cl)c1 [Compound 4a, 5-(4-bromophenyl)-4,6-dichloro-7-(2,4-dichlorophenyl)-7H-pyrrolo[2,3-d]pyrimidine] | 53 ± 0.7% | 100% | 100% | – | 43.5 ± 2.2% | 80 to 90% | – | 74.2 ± 2.5% | – | 74.6 ± 0.6% | 24.1 ± 1 µg/mL (≈ 49.4 µM) | 32.4 ± 0.8 µg/mL (≈ 66.4 µM) | 68.9 ± 0.5 µg/mL (≈ 141 µM) | 79.4 ± 1.6% | – | – |
| Clc1ccc(-n2cc(-c3ccc(Br)cc3)c3c(Cl)ncnc32)c(Cl)c1 [Compound 5, 5-(4-bromophenyl)-4-chloro-7-(2,4-dichlorophenyl)-7H-pyrrolo[2,3-d]pyrimidine] | 42.3 ± 1.3% | 27.9 ± 1.2% | 29.3 ± 0.8% | – | 34.5 ± 2.9% | 25.1 ± 0.7% | – | 60.4 ± 0.9% | – | 16.3 ± 2% | – | – | – | – | – | – |
| Cc1nc2c(c(-c3ccc(Br)cc3)cn2-c2ccc(Cl)cc2Cl)c(=O)[nH]1 [Compound 6, 5-(4-bromophenyl)-7-(2,4-dichlorophenyl)-2-methyl-3,7-dihydro-4H-pyrrolo[2,3-d]pyrimidin-4-one] | 100% | 100% | 100% | – | – | – | 31.2 ± 0.9 µg/mL (≈ 69.5 µM) | 100% | – | 84.9 ± 0.7% | 40 ± 1 µg/mL (≈ 89.1 µM) | 15.2 ± 0.9 µg/mL (≈ 33.8 µM) | – | – | 31.1 ± 0.9 µg/mL (≈ 69.2 µM) | – |
| Clc1ccc(-n2c(Cl)c(-c3ccc(Br)cc3)c3c(Cl)nc(C(Cl)(Cl)Cl)nc32)c(Cl)c1 [Compound 7, 5-(4-bromophenyl)-4,6-dichloro-7-(2,4-dichlorophenyl)-2-(trichloromethyl)-7H-pyrrolo[2,3-d]pyrimidine] | 54.2 ± 1.6% | 100% | 100% | – | – | 14.2 ± 0.8% | – | 100% | – | 100% | – | 16.2 ± 1.6 µg/mL (≈ 26.8 µM) | – | – | – | – |
| COc1nc(C(Cl)(Cl)Cl)nc2c1c(-c1ccc(Br)cc1)c(Cl)n2-c1ccc(Cl)cc1Cl [Compound 8, 5-(4-bromophenyl)-6-chloro-7-(2,4-dichlorophenyl)-4-methoxy-2-(trichloromethyl)-7H-pyrrolo[2,3-d]pyrimidine] | 13.5 ± 1.5% | 84.3 ± 2.5% | 100% | 17.8 ± 1.3 µg/mL (≈ 29.6 µM) | 100% | 19.3 ± 1.2% | 68.1 ± 1 µg/mL (≈ 113 µM) | 80 to 90% | 80 ± 1% | 15.6 ± 2.8% | 23.5 ± 0.6 µg/mL (≈ 39.1 µM) | 48 ± 1.5 µg/mL (≈ 79.9 µM) | – | – | – | 80 to 95% |
| COc1ncnc2c1c(-c1ccc(Br)cc1)c(Cl)n2-c1ccc(Cl)cc1Cl [Compound 9a, 5-(4-bromophenyl)-6-chloro-7-(2,4-dichlorophenyl)-4-methoxy-7H-pyrrolo[2,3-d]pyrimidine] | 53.8 ± 0.3% | 75.2 ± 3.6% | 1.3 ± 0.2% | – | – | 58.6 ± 1.3% | – | 52.1 ± 0.8% | – | 37.8 ± 0.6% | – | – | – | – | – | – |
| COc1ccc(-c2c(Cl)n(-c3ccc(Cl)cc3Cl)c3ncnc(OC)c23)cc1OC [Compound 9b, 6-chloro-7-(2,4-dichlorophenyl)-5-(3,4-dimethoxyphenyl)-4-methoxy-7H-pyrrolo[2,3-d]pyrimidine] | – | 100% | 2.5 ± 0.3% | – | 63.8 ± 0.6% | – | – | 45.6 ± 3.2% | – | – | – | – | – | – | – | – |
| Clc1ccc(-n2c(Cl)c(-c3ccc(Br)cc3)c3c(N4CCCC4)nc(C(Cl)(Cl)Cl)nc32)c(Cl)c1 [Compound 10, 5-(4-bromophenyl)-6-chloro-7-(2,4-dichlorophenyl)-4-(pyrrolidin-1-yl)-2-(trichloromethyl)-7H-pyrrolo[2,3-d]pyrimidine] | 100% | 100% | 100% | – | – | 10.2 ± 0.5% | 26.9 ± 0.6 µg/mL (≈ 42 µM) | 100% | – | 100% | – | 61.1 ± 1.4 µg/mL (≈ 95.5 µM) | – | – | 11.6 ± 0.8 µg/mL (≈ 18.1 µM) | – |
| Clc1ccc(-n2c(Cl)c(-c3ccc(Br)cc3)c3c(N4CCCC4)ncnc32)c(Cl)c1 [Compound 11a, 5-(4-bromophenyl)-6-chloro-7-(2,4-dichlorophenyl)-4-(pyrrolidin-1-yl)-7H-pyrrolo[2,3-d]pyrimidine] | 12.5 ± 1.4% | 65.2 ± 1% | 84.3 ± 1.7% | – | 7.2 ± 1.3% | 11.8 ± 0.6% | – | 44.2 ± 0.8% | – | 47.3 ± 1.3% | 55.4 ± 1.4 µg/mL (≈ 106 µM) | – | – | – | – | – |
| COc1ccc(-c2c(Cl)n(-c3ccc(Cl)cc3Cl)c3ncnc(N4CCCC4)c23)cc1OC [Compound 11b, 6-chloro-7-(2,4-dichlorophenyl)-5-(3,4-dimethoxyphenyl)-4-(pyrrolidin-1-yl)-7H-pyrrolo[2,3-d]pyrimidine] | 94.6 ± 1.3% | 80.4 ± 1.8% | 25.6 ± 0.9% | – | 63.1 ± 0.5% | 11.6 ± 0.9% | – | 33.5 ± 0.4% | – | 56.9 ± 0.1% | – | 48.4 ± 0.8 µg/mL (≈ 96.1 µM) | – | – | 27.7 ± 0.1 µg/mL (≈ 55 µM) | 80 to 95% |
